Read-outs that look alike come from different tables or passages of the source.
Legend:
HCMV polymerase = target: T1, HCMV polymerase (Human cytomegalovirus, UniProt P08546); experiment: biochemical; conditions: modified SPA assay: compounds diluted in 100% DMSO, 4.5 mM DTT in polymerase buffer; read-out: polymerase IC50 (μM) HCMV
T1 construct: made in house; host or cells: recombinant baculovirus-infected SF-9 cells
Protocol: The HCMV polymerase assay is performed using a scintillation proximity assay (SPA) as described in several references, such as N. D. Cook, et al., Pharmaceutical Manufacturing International, pages 49-53 (1992); K. Takeuchi, Laboratory Practice, September issue (1992); U.S. Pat. No. 4,568,649 (1986); which are incorporated by reference herein. Reactions are performed in 96-well plates. The assay is conducted in 100 μl volume with 5.4 mM HEPE (pH 7.5), 11.7 mM KCl, 4.5 mM MgCl2, 0.36 mg/ml BSA, and 90 nM ^3H-dTTP. Assays are run with and without CHAPS, (3-[(3-cholamidopropyl)-dimethylammonio]-1-propane-sulfonate) at a final concentration of 2 mM. HCMV polymerase is diluted in enzyme dilution buffer containing 50% glycerol, 250 mM NaCl, 10 mM HEPES (pH 7.5), 100 μg/ml BSA, and 0.01% sodium azide. The HCMV polymerase, which is expressed in recombinant baculovirus-infected SF-9 cells and purified according to literature procedures, is added at 10% (or 10 μl) of the final reaction volume, i.e., 100 μl. Compounds are diluted in 50% DMSO and 10 μl are added to each well. Control wells contain an equivalent concentration of DMSO. Unless noted otherwise, reactions are initiated via the addition of 6 nM biotinylated poly(dA)-oligo(dT) template/primer to reaction mixtures containing the enzyme, substrate, and compounds of interest. Plates are incubated in a 25 C or 37 C H2O bath and terminated via the addition of 40 μl/reaction of 0.5 M EDTA (pH 8) per well. Reactions are terminated within the time-frame during which substrate incorporation is linear and varied depending upon the enzyme and conditions used, i.e., 30 min. for HCMV polymerase. Ten μl of streptavidin-SPA beads (20 mg/ml in PBS/10% glycerol) are added following termination of the reaction. Plates are incubated 10 min. at 37 ° C., then equilibrated to room temperature, and counted on a Packard Topcount. Linear regressions are performed and IC50's are calculated using computer software.
A modified version of the above HCMV polymerase assay is performed as described above, but with the following changes: Compounds are diluted in 100% DMSO until final dilution into assay buffer. In the previous assay, compounds are diluted in 50% DMSO. 4.5 mM dithiothreotol (DTT) is added to the polymerase buffer.

HSV polymerase = HSV polymerase (Human herpesvirus 1, UniProt P04293); experiment: biochemical
HSV polymerase, sequence (P04293 whole entry): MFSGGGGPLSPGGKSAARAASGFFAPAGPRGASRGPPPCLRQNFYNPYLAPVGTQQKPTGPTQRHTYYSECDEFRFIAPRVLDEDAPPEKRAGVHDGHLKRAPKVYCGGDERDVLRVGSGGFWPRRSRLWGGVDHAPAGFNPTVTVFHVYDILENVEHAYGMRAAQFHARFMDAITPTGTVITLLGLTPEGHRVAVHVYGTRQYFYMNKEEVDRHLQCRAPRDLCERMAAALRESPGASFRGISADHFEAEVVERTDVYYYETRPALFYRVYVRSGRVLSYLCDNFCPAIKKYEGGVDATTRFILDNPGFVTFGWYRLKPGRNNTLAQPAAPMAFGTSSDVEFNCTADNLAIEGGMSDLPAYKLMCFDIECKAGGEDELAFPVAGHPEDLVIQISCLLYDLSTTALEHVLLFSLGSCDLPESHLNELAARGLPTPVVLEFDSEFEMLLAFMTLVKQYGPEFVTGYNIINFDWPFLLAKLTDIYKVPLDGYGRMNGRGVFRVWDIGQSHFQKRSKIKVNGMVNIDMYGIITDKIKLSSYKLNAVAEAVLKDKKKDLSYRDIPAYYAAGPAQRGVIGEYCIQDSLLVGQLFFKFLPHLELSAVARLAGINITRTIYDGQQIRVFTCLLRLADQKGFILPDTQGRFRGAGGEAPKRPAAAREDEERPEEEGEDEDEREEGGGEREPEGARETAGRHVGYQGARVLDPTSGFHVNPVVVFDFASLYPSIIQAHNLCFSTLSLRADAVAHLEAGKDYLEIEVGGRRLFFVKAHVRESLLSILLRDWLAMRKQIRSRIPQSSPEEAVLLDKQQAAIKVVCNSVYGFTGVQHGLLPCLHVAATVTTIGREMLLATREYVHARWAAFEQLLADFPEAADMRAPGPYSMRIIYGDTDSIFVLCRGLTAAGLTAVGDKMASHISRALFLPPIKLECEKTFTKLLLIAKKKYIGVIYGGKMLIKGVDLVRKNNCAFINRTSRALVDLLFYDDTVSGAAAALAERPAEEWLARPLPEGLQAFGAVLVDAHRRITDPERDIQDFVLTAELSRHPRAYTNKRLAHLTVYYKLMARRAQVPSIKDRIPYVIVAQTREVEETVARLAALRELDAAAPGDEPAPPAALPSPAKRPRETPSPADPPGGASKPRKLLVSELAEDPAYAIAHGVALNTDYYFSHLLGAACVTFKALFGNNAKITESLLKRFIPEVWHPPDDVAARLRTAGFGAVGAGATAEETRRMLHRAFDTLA

VZV polymerase = VZV polymerase (Varicella-zoster virus, UniProt P09252); experiment: biochemical; conditions: read-out: polymerase IC50 (μM) VZV
VZV polymerase, sequence (P09252 whole entry): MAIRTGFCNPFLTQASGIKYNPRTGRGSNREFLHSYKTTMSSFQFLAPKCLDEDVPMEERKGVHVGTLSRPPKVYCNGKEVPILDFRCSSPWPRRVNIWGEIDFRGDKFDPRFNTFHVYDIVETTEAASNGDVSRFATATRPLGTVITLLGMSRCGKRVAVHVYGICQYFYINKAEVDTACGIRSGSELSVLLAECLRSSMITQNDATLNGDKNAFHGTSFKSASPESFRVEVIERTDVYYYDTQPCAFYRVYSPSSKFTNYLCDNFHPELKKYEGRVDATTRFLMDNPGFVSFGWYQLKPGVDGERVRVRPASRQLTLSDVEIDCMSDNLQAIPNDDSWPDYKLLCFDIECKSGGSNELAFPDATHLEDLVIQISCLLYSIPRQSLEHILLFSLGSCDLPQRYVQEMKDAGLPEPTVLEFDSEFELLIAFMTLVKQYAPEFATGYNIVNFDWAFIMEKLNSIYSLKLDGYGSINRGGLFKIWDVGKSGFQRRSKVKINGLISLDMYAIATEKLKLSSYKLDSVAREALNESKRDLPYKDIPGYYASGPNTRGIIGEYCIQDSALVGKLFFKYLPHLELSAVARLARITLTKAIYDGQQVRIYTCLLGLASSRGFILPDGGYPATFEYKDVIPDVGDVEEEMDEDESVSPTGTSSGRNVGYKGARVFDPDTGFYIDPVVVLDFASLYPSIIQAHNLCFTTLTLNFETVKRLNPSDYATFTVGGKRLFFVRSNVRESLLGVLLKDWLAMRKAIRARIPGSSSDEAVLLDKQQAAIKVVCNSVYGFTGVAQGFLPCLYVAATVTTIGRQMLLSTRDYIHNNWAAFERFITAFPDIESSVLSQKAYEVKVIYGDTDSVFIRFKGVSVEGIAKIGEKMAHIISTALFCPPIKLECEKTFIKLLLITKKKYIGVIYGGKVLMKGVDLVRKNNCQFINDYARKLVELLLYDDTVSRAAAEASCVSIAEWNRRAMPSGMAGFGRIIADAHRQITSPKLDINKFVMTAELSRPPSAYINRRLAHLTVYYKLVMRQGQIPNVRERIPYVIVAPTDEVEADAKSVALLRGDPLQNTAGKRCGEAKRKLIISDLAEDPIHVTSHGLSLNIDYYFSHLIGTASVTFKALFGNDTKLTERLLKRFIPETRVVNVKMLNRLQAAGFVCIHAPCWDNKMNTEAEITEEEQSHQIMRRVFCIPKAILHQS

[1] = read-out: polymerase IC50 (μM) HSV

T1 sequence (P08546 whole entry): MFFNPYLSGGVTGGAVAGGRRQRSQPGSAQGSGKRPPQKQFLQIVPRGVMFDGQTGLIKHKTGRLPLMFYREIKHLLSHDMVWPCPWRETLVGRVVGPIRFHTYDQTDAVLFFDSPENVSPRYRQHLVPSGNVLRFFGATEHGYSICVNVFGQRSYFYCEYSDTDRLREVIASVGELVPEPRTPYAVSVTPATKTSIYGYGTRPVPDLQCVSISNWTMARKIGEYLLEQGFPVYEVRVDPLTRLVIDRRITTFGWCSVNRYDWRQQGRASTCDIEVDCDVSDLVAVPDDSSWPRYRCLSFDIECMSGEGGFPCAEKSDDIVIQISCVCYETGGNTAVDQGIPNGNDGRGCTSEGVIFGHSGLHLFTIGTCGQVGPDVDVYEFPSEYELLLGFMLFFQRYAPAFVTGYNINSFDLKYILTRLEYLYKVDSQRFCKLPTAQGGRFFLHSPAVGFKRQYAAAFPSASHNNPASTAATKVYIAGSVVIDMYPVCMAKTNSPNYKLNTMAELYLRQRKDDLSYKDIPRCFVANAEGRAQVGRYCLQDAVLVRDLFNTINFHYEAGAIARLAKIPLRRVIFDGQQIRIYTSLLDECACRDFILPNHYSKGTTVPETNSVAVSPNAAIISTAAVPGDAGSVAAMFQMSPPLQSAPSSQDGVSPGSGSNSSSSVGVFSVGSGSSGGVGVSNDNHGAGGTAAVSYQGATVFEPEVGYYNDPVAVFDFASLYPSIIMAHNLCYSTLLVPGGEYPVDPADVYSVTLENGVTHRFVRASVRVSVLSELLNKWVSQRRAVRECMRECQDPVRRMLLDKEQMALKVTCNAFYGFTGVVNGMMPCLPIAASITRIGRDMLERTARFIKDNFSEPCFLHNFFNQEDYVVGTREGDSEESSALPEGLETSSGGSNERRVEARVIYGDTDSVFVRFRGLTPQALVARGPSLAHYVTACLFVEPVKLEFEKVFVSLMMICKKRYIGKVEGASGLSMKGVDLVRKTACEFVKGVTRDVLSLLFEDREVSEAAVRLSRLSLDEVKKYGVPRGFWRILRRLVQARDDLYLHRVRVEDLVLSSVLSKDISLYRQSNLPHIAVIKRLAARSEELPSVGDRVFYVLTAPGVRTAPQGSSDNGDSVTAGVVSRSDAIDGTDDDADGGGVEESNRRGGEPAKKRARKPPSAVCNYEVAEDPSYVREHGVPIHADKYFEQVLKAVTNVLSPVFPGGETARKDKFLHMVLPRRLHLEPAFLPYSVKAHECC

O=C(NCc1ccc(Cl)cc1)c1cnc2sc(CCCO)cc2c1O [Example 8, N-(4-Chlorobenzyl)4-hydroxy-2-(3-hydroxpropyl)thieno[2,3-b]pyridine-5-carboxamide]
IC50 (HCMV polymerase): 2.2 µM | IC50 (HSV polymerase; [1]): 0.91 µM | IC50 (VZV polymerase): 0.55 µM | melting point: 185 to 186 °C

O=C(NCc1ccc(Cl)cc1)c1cnc2sc(C#CCO)cc2c1O [Example 5, N-(4-Chlorobenzyl)-4-hydroxy-2-(3-hydroxy-1-propynyl)thieno[2,3-b]pyridine-5-carboxamide]
IC50 (HCMV polymerase): 2.5 µM | IC50 (HSV polymerase; [1]): 0.88 µM | IC50 (VZV polymerase): 0.6 µM | melting point: 233 to 236 °C

Cn1cc(C(=O)NCc2ccc(Cl)cc2)c(=O)c2cc(CN3CCOCC3)sc21 [Example 36, N-(4-Chlorobenzyl)-7-methyl-2-(4-morpholinylmethyl)-4-oxo-4,7-dihydrothieno[2,3-b]pyridine-5-carboxamide]
IC50 (HCMV polymerase): 1.8 µM | IC50 (HSV polymerase): 1.2 µM | IC50 (VZV polymerase): 0.77 µM

O=C(NCc1ccc(Cl)cc1)c1cn(CCO)c2sc(C#CCO)cc2c1=O [Example 17, N-(4-Chlorobenzyl)-7-(2-hydroxyethyl)-2-(3-hydroxy-1-5 propynyl)-4-oxo-4,7-dihydrothieno[2,3-b]pyridine-5-carboxamide]
IC50 (HCMV polymerase): 0.92 µM | IC50 (HSV polymerase; [1]): 0.89 µM | IC50 (VZV polymerase): 0.28 µM
